Assay results from US20170152258A9, “Substituted Pyridopyrazines as Syk Inhibitors” (HUTCHISON MEDIPHARMA LIMITED, priority 2012, published 2017).
pIC50: −log10 of the molar value.

Molecular target: Syk kinase (Homo sapiens, UniProt P43405)
Experiment: SYK Enzymatic Assay (Z-LYTE Tyr 2 peptide)
Format: biochemical
Details: 8 concentrations 1 μM down to 0.0003 μM
Description: Syk kinase assay are performed in vitro using Kit-Tyr 2 Peptide (Invitrogen, Cat. No. PV3191) and in a 384-well assay plate. […] The 384-well assay plate (Corning, Cat. No. 3575) is mixed and incubated at room temperature for 1 hour. 10 μL of the Development Solution (prepared by diluting Development Reagent A (Cat. No. PV3297) to 1/32 with Development Buffer (Cat. No. PV3127)) is then added to each well, mixed and incubated at room temperature for another 1 hour. The reactions are then stopped by adding 10 μL of the Stop Reagent (Invitrogen, Cat. No. PV3094), and the plate is read with Wallac 1420 VICTOR^3 Multilabel Counter (PerkinElmer™) at 445 nm and 520 nm fluorescence. All compounds are tested at 8 concentrations (1 μM down to 0.0003 μM) using a 1:3 serial dilution scheme.

SMILES	pIC50
Cc1ccc(-c2cc3nccnc3c(OC[C@@H]3CN(S(C)(=O)=O)CCO3)n2)cc1 [Compound 41]	6.86
NC(=O)c1ccc(Oc2nc(-c3ccc(N4CCOCC4)cc3)cc3nccnc23)cc1 [Compound 3, 4-(7-(4-morpholinophenyl)pyrido[4,3-b]pyrazin-5-yloxy)benzamide]	6.34
NC(=O)N1CCO[C@H](COc2nc(-c3ccc4[nH]ncc4c3)cc3nccnc23)C1 [Cmpd 242]	6.95
CS(=O)(=O)N1CCO[C@H](COc2nc(-c3ccc(N4CCCC4)cc3)cc3nccnc23)C1 [Compound 37]	7.40
CN(C)c1ccc(-c2cc3nccnc3c(OC[C@@H]3CN(S(=O)(=O)C4CCCCC4)CCO3)n2)cc1 [Compound 91]	6.32
CN(C)c1ccc(-c2cc3nccnc3c(O[C@H]3CCOC3)n2)cc1 [Compound 106]	6.89
CNc1ccc(-c2cc3nccnc3c(OC[C@@H]3CN(C(C)=O)CCO3)n2)cc1 [Compound 47]	6.91
CN(C)c1ccc(-c2cc3nccnc3c(OC[C@@H]3CN(C(=O)CCn4ccnc4)CCO3)n2)cc1 [Compound 85]	6.55
c1cnc2c(OCCc3cn[nH]c3)nc(-c3ccc(N4CCOCC4)cc3)cc2n1 [Compound 2, 4-(4-(5-(2-(1H-pyrazol-4-yl)ethoxy)pyrido[3,4-b]pyrazin-7-yl)phenyl)morpholine]	6.26
CN(C)c1ccc(-c2cc3nccnc3c(OC[C@@H]3CN(C(=O)C4(C#N)CC4)CCO3)n2)cc1 [Compound 97]	6.84
CN(C)c1ccc(-c2cc3nccnc3c(OC[C@@H]3CN(C(=O)Cc4cccnc4)CCO3)n2)cc1 [Compound 80]	6.97
CN(C)c1ccc(-c2cc3nccnc3c(OC[C@@H]3CN(S(=O)(=O)Cc4cccc(F)c4)CCO3)n2)cc1 [Compound 93]	6.09
Cn1cc(-c2cc3nccnc3c(OC[C@@H]3CN(S(C)(=O)=O)CCO3)n2)cn1 [Compound 46]	6.72
CS(=O)(=O)N1CCO[C@H](COc2nc(-c3cnn(C4CCOCC4)c3)cc3nccnc23)C1 [Compound 42]	6.86
O=C1CCC(COc2nc(-c3ccc(N4CCOCC4)cc3)cc3nccnc23)CN1 (stereo not drawn) [Compound 4, 5-(((7-(4-morpholinophenyl)pyrido[3,4-b]pyrazin-5-yl)oxy)methyl)piperidin-2-one]	6.80
CS(=O)(=O)N1CCO[C@H](COc2nc(-c3ccc(F)cc3)cc3nccnc23)C1 [Compound 44]	6.49

SMILES	pIC50
COCCNc1ccc(-c2cc3nccnc3c(OC[C@@H]3CN(C(C)=O)CCO3)n2)cc1 [Compound 114]	6.91
CN(C)c1ccc(-c2cc3nccnc3c(OC[C@@H]3CN(C(=O)CCc4cccnc4)CCO3)n2)cc1 [Compound 79]	6.64
CC(C)S(=O)(=O)N1CCO[C@H](COc2nc(-c3ccc(N4CCOCC4)cc3)cc3nccnc23)C1 [Compound 82]	6.95
COc1cc(-c2cc3nccnc3c(OC[C@@H]3CN(C(C)=O)CCO3)n2)ccc1OC(C)C [Compound 147]	6.94
CS(=O)(=O)N1CCO[C@H](COc2nc(-c3ccc(C4CCNCC4)cc3)cc3nccnc23)C1 [Compound 10, (S)-4-(methylsulfonyl)-2-(((7-(4-(piperidin-4-yl)phenyl)pyrido[3,4-b]pyrazin-5-yl)oxy)methyl)morpholine]	7.74
CC(=O)N1CCO[C@H](COc2nc(-c3ccc(C(C)C)cc3)cc3nccnc23)C1 [Compound 160]	6.99
CN(C)CCOc1cccc(-c2cc3nccnc3c(OC[C@@H]3CN(S(C)(=O)=O)CCO3)n2)c1 [Compound 130]	6.34
CS(=O)(=O)N1CCO[C@H](COc2nc(-c3ccc(Cl)cc3)cc3nccnc23)C1 [Compound 40]	6.47
COc1ccc(-c2cc3nccnc3c(OC[C@@H]3CN(C(C)=O)CCO3)n2)cc1OC [Compound 132]	6.96
CN(C)c1ccc(-c2cc3nccnc3c(OC[C@@H]3CN(C(=O)CCCC#N)CCO3)n2)cc1 [Compound 81]	6.78
CN(C)c1ccc(-c2cc3nccnc3c(OC3CCOCC3)n2)cc1 [Compound 107]	6.04
CN(C)S(=O)(=O)N1CCO[C@H](COc2nc(-c3ccc(N4CCOCC4)cc3)cc3nccnc23)C1 [Compound 56]	6.92
CN1CCN(c2ccc(-c3cc4nccnc4c(OCC4CCC(=O)NC4)n3)cc2)CC1 (stereo not drawn) [Compound 5]	6.76
CNS(=O)(=O)CCN1CCO[C@H](COc2nc(-c3ccc(N(C)C)cc3)cc3nccnc23)C1 [Compound 128]	6.32
CS(=O)(=O)N1CCO[C@H](COc2nc(-c3ccc(C#N)cc3)cc3nccnc23)C1 [Compound 45]	6.07
CN(C)c1ccc(-c2cc3nccnc3c(OC[C@@H]3CN(C(=O)C4CC4(F)F)CCO3)n2)cc1 (stereo partly drawn) [Compound 96]	6.87

Other lines, results leading:

pIC50	SMILES
6.95	CC(=O)N1CCO[C@H](COc2nc(-c3ccc(C4(C#N)CC4)cc3)cc3nccnc23)C1 [Compound 276]
6.41	CC(=O)N1CCOC(C(C)Oc2nc(-c3ccc(N(C)C)cc3)cc3nccnc23)C1 (stereo not drawn) [Compound 233]
6.67	CNC(=O)N1CCOC(C(C)Oc2nc(-c3ccc(N(C)C)cc3)cc3nccnc23)C1 (stereo not drawn) [Compound 235]
6.09	CC(=O)N1CCO[C@H](COc2nc(-c3cnc(N(C)C)c(C)c3)cc3nccnc23)C1 [Compound 174]
6.68	CN(C)c1ccc(-c2cc3nccnc3c(OCC3CCCO3)n2)cc1 (stereo not drawn) [Compound 168]
6.98	CC(=O)NC(C)(C)c1ccc(-c2cc3nccnc3c(OC[C@@H]3CN(S(C)(=O)=O)CCO3)n2)cc1 [Compound 313]
6.98	CC(C)C(O)c1ccc(-c2cc3nccnc3c(OC[C@@H]3CN(S(C)(=O)=O)CCO3)n2)cc1 (stereo partly drawn) [Compound 287]
6.72	CS(=O)(=O)N1CCN(c2ccc(-c3cc4nccnc4c(O[C@@H]4CCCOC4)n3)cc2)CC1 [Compound 179]
6.92	CS(=O)(=O)N1CCC(c2ccc(-c3cc4nccnc4c(OCC4OCCNC4=O)n3)cc2)CC1 (stereo not drawn) [Compound 320]
6.94	CC(=O)N1CCO[C@H](COc2nc(-c3ccc(C4(C#N)CCC4)cc3)cc3nccnc23)C1 [Compound 289]
6.35	CC(=O)N1CCO[C@H](COc2nc(-c3ccc(C(C)(C)N)cc3)cc3nccnc23)C1 [Compound 245]
6.82	CC(=O)N1CCO[C@H](COc2nc(-c3ccc(C4CCNCC4)cc3)cc3nccnc23)C1 [Compound 162]
6.95	COC(C)c1ccc(-c2cc3nccnc3c(OC[C@@H]3CN(C(C)=O)CCO3)n2)cc1 (stereo partly drawn) [Compound 280]
6.56	CC(Oc1nc(-c2ccc(N(C)C)cc2)cc2nccnc12)C1CN(C(N)=O)CCO1 (stereo not drawn) [Compound 238]
6.23	CN1C[C@@H](COc2nc(-c3ccc(C(C)(C)O)cc3)cc3nccnc23)OCC1=O [Compound 310]
6.94	CC(=O)N1CCC(c2ccc(-c3cc4nccnc4c(O[C@@H]4CCCOC4)n3)cc2)CC1 [Compound 191]
6.57	CS(=O)(=O)N1CCC(c2ccc(-c3cc4nccnc4c(OCC4CCCCO4)n3)cc2)CC1 (stereo not drawn) [Compound 169]

pIC50	SMILES
6.52	c1cnc2c(O[C@@H]3CCNC3)nc(-c3ccc(N4CCOCC4)cc3)cc2n1 [Compound 243]
6.59	CC(=O)N1CCO[C@H](COc2nc(-c3ccc(C(O)C(C)(C)C)cc3)cc3nccnc23)C1 (stereo partly drawn) [Compound 285]
6.58	CC(Oc1nc(-c2ccc(N(C)C)cc2)cc2nccnc12)C1CN(S(C)(=O)=O)CCO1 (stereo not drawn) [Compound 240]
6.39	CC(=O)N1CCO[C@H](COc2nc(-c3ccc(C(O)C(C)C)cc3)cc3nccnc23)C1 (stereo partly drawn) [Compound 286]
6.75	CS(=O)(=O)N1CCC(c2ccc(-c3cc4nccnc4c(O[C@@H]4CCCOC4)n3)cc2)CC1 [Compound 180]
6.13	CC(=O)N1CCO[C@H](COc2nc(-c3ccc(C(C)N(C)C)cc3)cc3nccnc23)C1 (stereo partly drawn) [Compound 271]
6.96	CC(=O)N1CCO[C@H](COc2nc(-c3ccc(N4CCNCC4)c(C)c3)cc3nccnc23)C1 [Compound 182]
6.35	CNC(=O)N1CCOC(C(C)Oc2nc(-c3ccc(N(C)C)cc3)cc3nccnc23)C1 (stereo not drawn) [Compound 239]
6.90	CC(=O)N1CCO[C@H](COc2nc(-c3ccc(C4(O)CCC4)cc3)cc3nccnc23)C1 [Compound 309]
6.72	C=C(C)c1ccc(-c2cc3nccnc3c(OC[C@@H]3CN(S(C)(=O)=O)CCO3)n2)cc1 [Compound 277, (S)-4-(methylsulfonyl)-2-(((7-(4-(prop-1-en-2-yl)phenyl)pyrido[3,4-b]pyrazin-5-yl)oxy)methyl)morpholine]
6.96	CC(C)c1ccc(-c2cc3nccnc3c(OC[C@@H]3CN(S(N)(=O)=O)CCO3)n2)cc1 [Compound 187]
6.89	CC(=O)N1CC(c2ccc(-c3cc4nccnc4c(OC[C@@H]4CN(C(C)=O)CCO4)n3)cc2)C1 [Compound 295, (S)-1-(2-(((7-(4-(1-acetylazetidin-3-yl)phenyl)pyrido[3,4-b]pyrazin-5-yl)oxy)methyl)morpholino)ethanone]
6.87	Clc1cc(-c2cc3nccnc3c(O[C@@H]3CCOC3)n2)ccc1N1CCOCC1 [Compound 194]
6.68	CC(C)(O)c1ccc(-c2cc3nccnc3c(OCC3OCCNC3=O)n2)cc1 (stereo not drawn) [Compound 319]
6.87	CC(C)(N)c1ccc(-c2cc3nccnc3c(OC[C@@H]3CN(S(C)(=O)=O)CCO3)n2)cc1 [Compound 244]
6.76	CC(=O)N1CCO[C@H](COc2nc(-c3ccc(C(C)(CO)CO)cc3)cc3nccnc23)C1 [Compound 278]
6.74	CS(=O)(=O)N1CCC(c2ccc(-c3cc4nccnc4c(OCC4CCCO4)n3)cc2)CC1 (stereo not drawn) [Compound 170]
